From ChEMBL document CHEMBL6083176, “Fluorescence theranostic PROTACs for real-time visualization of ERα degradation” (Eur J Med Chem, 2024) come the findings set out here.

Data set [1] has as its target T1, Estrogen receptor (Homo sapiens) (UniProt P03372).
T1 sequence (whole entry): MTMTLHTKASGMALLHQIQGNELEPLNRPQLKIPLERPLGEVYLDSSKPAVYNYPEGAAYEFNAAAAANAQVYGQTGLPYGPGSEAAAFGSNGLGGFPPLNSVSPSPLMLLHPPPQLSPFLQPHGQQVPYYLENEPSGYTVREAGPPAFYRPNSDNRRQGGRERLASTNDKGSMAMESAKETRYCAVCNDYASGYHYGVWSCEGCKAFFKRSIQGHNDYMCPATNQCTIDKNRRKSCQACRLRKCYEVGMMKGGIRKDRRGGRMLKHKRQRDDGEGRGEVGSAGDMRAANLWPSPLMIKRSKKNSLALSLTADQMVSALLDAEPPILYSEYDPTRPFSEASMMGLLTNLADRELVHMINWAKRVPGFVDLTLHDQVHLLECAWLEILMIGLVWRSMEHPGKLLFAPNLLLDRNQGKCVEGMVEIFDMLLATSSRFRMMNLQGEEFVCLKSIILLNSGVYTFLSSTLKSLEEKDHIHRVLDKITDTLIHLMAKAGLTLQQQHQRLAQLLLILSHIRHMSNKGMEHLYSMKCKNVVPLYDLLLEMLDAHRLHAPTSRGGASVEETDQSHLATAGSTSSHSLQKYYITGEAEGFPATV
The data set is described as follows: Binding affinity to ERalpha (unknown origin) assessed as relative binding affinity incubated for 2 hrs in presence of coumestrol by fluorescence polarization based competitive binding assay relative to estradiol.

Data set [2] addresses T2, von Hippel-Lindau disease tumor suppressor/Estrogen receptor (Homo sapiens, UniProt P03372+P40337). The data set is described as follows: PROTAC activity at VHL/ERalpha in human MCF7 cells assessed as induction of ERalpha degradation at 5 uM by Western blot analysis. The class given is cell-based. (Immunoblotting shows a protein as a band on a membrane.)
Target sequence in this assay (P40337 whole entry, looked up, one chain of several): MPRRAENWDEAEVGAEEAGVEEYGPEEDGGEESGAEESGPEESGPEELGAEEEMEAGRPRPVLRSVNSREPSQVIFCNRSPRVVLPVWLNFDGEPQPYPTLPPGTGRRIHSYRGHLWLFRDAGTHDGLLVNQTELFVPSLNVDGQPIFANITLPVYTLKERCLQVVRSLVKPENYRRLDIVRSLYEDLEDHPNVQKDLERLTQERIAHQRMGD
Data set [3] has as its system MCF7. The data set is described as follows: Antiproliferative activity against human MCF7 cells assessed as reduction in cell viability incubated for 48 hrs by MTT assay. The class given is functional, cell-based. Conditions: MCF7, 48 h. (Tetrazolium assays rely on reduction of a dye to a coloured formazan, in cell work by metabolically active cells.)
For data set [4], the target named is Estrogen receptor beta (Homo sapiens) (UniProt Q92731). In words: Binding affinity to ERbeta (unknown origin) assessed as relative binding affinity incubated for 2 hrs in presence of coumestrol by fluorescence polarization based competitive binding assay relative to estradiol. (In fluorescence polarisation assays a small probe gives low polarisation when free and higher when bound to something large.)

For data set [5], the system named is DU-145. The data set is described as follows: Antiproliferative activity against human DU-145 cells assessed as reduction in cell viability incubated for 48 hrs by MTT assay. The class given is functional, cell-based. To be noted: DU-145, 48 h.
Data set [6] is described as follows: Selectivity ratio of RBA for ERalpha (unknown origin) to RBA for ERbeta (unknown origin).
A short description of data set [7]: Chemical reactivity of compound to […] assessed as change in fluorescence response. The class given is physicochemical.
Data set [8] is described as follows: Photostability of the compound in DMSO/PBS solution assessed as decrease in fluorescence intensity at 466 nm excitation with Hamamatsu LC8 lightning cure (300 W) light for 2 hrs by fluorescence based analysis relative to initial value. To be noted: read-out: Activity. The arrangement: dose or concentration left out as unconfirmed. It is filed as physicochemical.

Data set [9] can be described thus: Drug uptake in human MCF7 cells assessed as increase in red fluorescence at 10 uM measured after 24 hrs by confocal laser scanning microscopic analysis. It is filed as ADME, cell-based. To be noted: mcf7, 24 h.
Data set [10] can be described thus: Chemical reactivity of compound to lysine assessed as change in fluorescence response. It is filed as physicochemical.
Data set [11] in a line: Chemical reactivity of compound to NaHCO3 assessed as change in fluorescence response. It is filed as physicochemical.
A short description of data set [12]: Chemical reactivity of compound to NaNO2 assessed as change in fluorescence response. The class given is physicochemical.
Data set [13] concerns the target T2, von Hippel-Lindau disease tumor suppressor/Estrogen receptor. In words: PROTAC activity at VHL/ERalpha in human MCF7 cells assessed as induction of ERalpha degradation by measuring decrease in green fluorescence at 10 uM measured after 24 hrs by anti-ERalpha based immunofluorescence analysis. It is filed as cell-based.
Target sequence in this assay (P40337 whole entry, looked up, one chain of several): as above
For data set [14] the target is unchanged. The data set is described as follows: PROTAC activity at VHL/ERalpha in human MCF7 cells assessed as induction of ERalpha degradation at 0.05 to 0.5 uM incubated for 24 hrs in presence of 4-OHT by Western blot analysis. It is filed as cell-based. To be noted: dose 0.05-0.5 µM.
Target sequence in this assay (P40337 whole entry, looked up, one chain of several): as above
Data set [15] is described as follows: Chemical reactivity of compound to methionine assessed as change in fluorescence response. The class given is physicochemical.
Data set [16] in a line: Chemical reactivity of compound to CaCl2 assessed as change in fluorescence response. The class given is physicochemical.
Data set [17] can be described thus: Drug uptake in ER positive human MCF7 cells assessed as increase in red fluorescence at 10 uM incubated for 30 mins in glucose-depleted DMEM medium in presence of estradiol by confocal laser scanning microscopic analysis. It is filed as ADME, cell-based. Conditions: mcf7, 0.5 h.
The nature of data set [18]: Chemical reactivity of compound to MgCl2 assessed as change in fluorescence response. It is filed as physicochemical.
The target in data set [19] is T2, von Hippel-Lindau disease tumor suppressor/Estrogen receptor. In words: PROTAC activity at VHL/ERalpha in human MCF7 cells assessed as induction of ERalpha degradation at 0.5 uM incubated for 24 hrs in presence of VHL ligand by Western blot analysis. The class given is cell-based.
Target sequence in this assay (P40337 whole entry, looked up, one chain of several): as above
Data set [20] shares this target. The data set is described as follows: PROTAC activity at VHL/ERalpha in human MCF7 cells assessed as induction of ERalpha degradation at 0.5 uM incubated for 24 hrs in presence of MG132 by Western blot analysis. It is filed as cell-based.
Target sequence in this assay (P40337 whole entry, looked up, one chain of several): as above
Data set [21] is described as follows: Chemical reactivity of compound to glycine assessed as change in fluorescence response. It is filed as physicochemical.
Data set [22] is described as follows: Chemical reactivity of compound to KCl assessed as change in fluorescence response. It is filed as physicochemical.
The nature of data set [23]: Drug uptake in ER positive human MCF7 cells assessed as increase in red fluorescence at 10 uM incubated for 30 mins in glucose-depleted DMEM medium by confocal laser scanning microscopic analysis. The class given is ADME, cell-based. Conditions: mcf7, 0.5 h.
For data set [24], the target named is T2, von Hippel-Lindau disease tumor suppressor/Estrogen receptor. The data set is described as follows: PROTAC activity at VHL/ERalpha in human MCF7 cells assessed as induction of ERalpha degradation incubated for 24 hrs by Western blot analysis. The class given is cell-based.
Target sequence in this assay (P40337 whole entry, one chain of several): as the sequence (P40337 whole entry, looked up, one chain of several) above
The nature of data set [25]: GSH reactivity of compound assessed as change in fluorescence response. It is filed as physicochemical.
Data set [26] deals with MCF7. The data set is described as follows: Effect on ERalpha expression in human MCF7 cells at 5 uM incubated for 24 hrs by Western blot analysis. The class given is functional, cell-based.

Active and inactive are the calls of the source. No cut-off for these calls is given here. Peptide text beside a SMILES is read from it. * marks the point of attachment. Cbz = O=C(OCc1ccccc1)* A value given as a limit tells only on which side of the number the result lay.

Usually IC50 stands for the midpoint of a concentration-inhibition curve. The term DC50 denotes the concentration at which degradation of the target reaches its halfway point.

Estrogen receptor beta (Homo sapiens), sequence (Q92731 whole entry): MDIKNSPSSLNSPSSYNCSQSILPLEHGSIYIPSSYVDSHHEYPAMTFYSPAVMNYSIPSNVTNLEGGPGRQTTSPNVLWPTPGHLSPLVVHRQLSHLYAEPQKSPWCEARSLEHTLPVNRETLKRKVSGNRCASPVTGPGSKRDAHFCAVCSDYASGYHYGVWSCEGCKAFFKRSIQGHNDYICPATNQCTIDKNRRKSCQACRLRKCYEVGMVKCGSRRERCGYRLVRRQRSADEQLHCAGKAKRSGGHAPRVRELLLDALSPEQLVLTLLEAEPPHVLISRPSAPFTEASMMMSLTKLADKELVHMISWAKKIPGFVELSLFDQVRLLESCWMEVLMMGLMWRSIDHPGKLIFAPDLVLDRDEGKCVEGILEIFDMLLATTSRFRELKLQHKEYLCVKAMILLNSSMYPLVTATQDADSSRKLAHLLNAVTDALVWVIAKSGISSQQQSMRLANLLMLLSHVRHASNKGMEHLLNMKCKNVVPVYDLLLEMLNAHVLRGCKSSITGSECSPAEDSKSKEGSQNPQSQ

In the case of `Cc1ncsc1-c1ccc([C@H](C)NC(=O)[C@@H]2C[C@@H](O)CN2C(=O)[C@@H](NC(=O)CCCCCCCOc2cc(O)ccc2/C=C/C2=CC(=C(C#N)C#N)c3cc(O)ccc3O2)C(C)(C)C)cc1`, the RBA in data set [1] was 2.48%; in [4] it was 0.65%. For the same compound, the result in [2] was Active. Further, the IC50 in data set [3] was 110 nM; in data set [5], > 100000 nM. For the same compound, in [6], the Selectivity ratio is 3.79.

With `Cc1ncsc1-c1ccc([C@H](C)NC(=O)[C@@H]2C[C@@H](O)CN2C(=O)[C@@H](NC(=O)CCCCCCCCCOc2cc(O)ccc2/C=C/C2=CC(=C(C#N)C#N)c3cc(O)ccc3O2)C(C)(C)C)cc1`, the RBA is 7.99% in data set [1] and 3.94% in [4]. For the same compound, the Activity entry in [7] is listed as “Not_active”; in data set [10], “Not_active”; in data set [11], “Not_active”; in data set [12] it was “Not_active”; in [13], “Active; Nearly Complete Disappearance Of Fluorescence Observed”; in data set [15], “Not_active”. In addition, the Activity entry in [16] is “Not_active”; in data set [18] it was “Not_active”; in data set [20], “Not active; Mg132 Partly Blocked The Degradation”; in data set [21], “Not_active”; in data set [22], “Not_active”. Also, the degraded at 2 h in data set [8] is < 5%. Moreover, the figures for the Drug uptake result in data set [9], in data set [17] and in [23] were “Active”, “Not_active” and “Active”, respectively. In addition, the result in data set [2] was Active. The result in [14] and in [19] was inactive. Besides, the IC50 in data set [3] was 51 nM; in [5], > 100000 nM. Besides, in data set [24], the DC50 was 120 nM. Moreover, the Drug metabolism entry in data set [25] is “metabolite_notdetected”. Besides, the Selectivity ratio in data set [6] worked out at 2.03.

With `C[C@]12CC[C@@H]3c4ccc(O)cc4C[C@@H](CCCCCCCCC[S+]([O-])CCCC(F)(F)C(F)(F)F)[C@H]3[C@@H]1CC[C@@H]2O` (stereo not given in full) [FULVESTRANT], the IC50 in data set [3] is 3 nM.

Take `CC(C)C[C@@H](C=O)NC(=O)[C@H](CC(C)C)NC(=O)[C@H](CC(C)C)NC(=O)OCc1ccccc1` (Cbz-Leu-Leu-Leu-aldehyde): the outcome in data set [26] was inactive.

As for `Cc1ncsc1-c1ccc([C@H](C)NC(=O)[C@@H]2C[C@@H](O)CN2C(=O)[C@@H](NC(=O)CCCCCCCCCCCOc2cc(O)ccc2/C=C/C2=CC(=C(C#N)C#N)c3cc(O)ccc3O2)C(C)(C)C)cc1`, the values for the RBA in data set [1] and in data set [4] were 2.11% and 1.4%, respectively. Further, in [2], the outcome was Active. Further, the IC50 in data set [3] is 33500 nM; in data set [5], > 100000 nM. In [6], the Selectivity ratio was 1.51.

Take `Cc1ncsc1-c1ccc([C@H](C)NC(=O)[C@@H]2C[C@@H](O)CN2C(=O)[C@@H](NC(=O)CCCCCOc2cc(O)ccc2/C=C/C2=CC(=C(C#N)C#N)c3cc(O)ccc3O2)C(C)(C)C)cc1`: the RBA in data set [1] worked out at 3.69%; in data set [4], 2.48%. Also, the outcome in [2] was Active. The IC50 in [3] and in data set [5] was > 100000 nM each time. In addition, the Selectivity ratio in [6] is 1.48.
